Results reported in PubChem BioAssay AID1963451 (Molecular Pharmacology Branch, DTP, NCI, 2024).

Test system: 521955-158-R6-J3-PDC complex spheroid growth, % test/control
Assay: Anticancer human tumor 521955-158-R6-J3-PDC patient-derived pancreatic carcinoma cell line growth inhibition [Asc]
Details: for viability, T/C: stronger effect = lower value
Procedure, shortened: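 Complex spheroids combining tumor cells with HUVEC endothelial cells and human MSCs, at 37 degrees C, 5% CO2; agents tested alone or combined, half-log dilutions from at or near clinical Cmax, or 10 microM if Cmax unknown.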

[1] = curve of first compound, second compound 0.00316 µM
[2] = curve of first compound, second compound 0.01 µM
[3] = curve of first compound, second compound 0.0316 µM
[4] = curve of first compound, second compound 0.1 µM
[5] = curve of first compound, second compound 0.316 µM
[6] = curve of first compound, second compound 1 µM
[7] = second compound 0.00316 µM, first compound 0.00316 µM
[8] = second compound 0.00316 µM, first compound 0.01 µM
[9] = second compound 0.00316 µM, first compound 0.0316 µM
[10] = second compound 0.00316 µM, first compound 0.1 µM
[11] = second compound 0.00316 µM, first compound 0.316 µM
[12] = second compound 0.00316 µM, first compound 1 µM
[13] = second compound 0.01 µM, first compound 0.00316 µM
[14] = second compound 0.01 µM, first compound 0.01 µM
[15] = second compound 0.01 µM, first compound 0.0316 µM
[16] = second compound 0.01 µM, first compound 0.1 µM
[17] = second compound 0.01 µM, first compound 0.316 µM
[18] = second compound 0.01 µM, first compound 1 µM
[19] = second compound 0.0316 µM, first compound 0.00316 µM
[20] = second compound 0.0316 µM, first compound 0.01 µM
[21] = second compound 0.0316 µM, first compound 0.0316 µM
[22] = second compound 0.0316 µM, first compound 0.1 µM
[23] = second compound 0.0316 µM, first compound 0.316 µM
[24] = second compound 0.0316 µM, first compound 1 µM
[25] = second compound 0.1 µM, first compound 0.00316 µM
[26] = second compound 0.1 µM, first compound 0.01 µM
[27] = second compound 0.1 µM, first compound 0.0316 µM
[28] = second compound 0.1 µM, first compound 0.1 µM
[29] = second compound 0.1 µM, first compound 0.316 µM
[30] = second compound 0.1 µM, first compound 1 µM
[31] = second compound 0.316 µM, first compound 0.00316 µM
[32] = second compound 0.316 µM, first compound 0.01 µM
[33] = second compound 0.316 µM, first compound 0.0316 µM
[34] = second compound 0.316 µM, first compound 0.1 µM
[35] = second compound 0.316 µM, first compound 0.316 µM
[36] = second compound 0.316 µM, first compound 1 µM
[37] = second compound 1 µM, first compound 0.00316 µM
[38] = second compound 1 µM, first compound 0.01 µM
[39] = second compound 1 µM, first compound 0.0316 µM
[40] = second compound 1 µM, first compound 0.1 µM
[41] = second compound 1 µM, first compound 0.316 µM
[42] = second compound 1 µM, first compound 1 µM
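Also: spheroids exposed to compounds for 7 days.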
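For viability, T/C in this document: 100% = DMSO vehicle control wells.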

`O=C(c1ccc(F)c(F)c1Nc1ccc(I)cc1F)N1CC(O)([C@@H]2CCCCN2)C1` + CNC(C)C(=O)NC1CN(S(=O)(=O)c2cccc(S(=O)(=O)N3CCC4CCC(C(=O)NC(c5ccccc5)c5ccccc5)N4C(=O)C(NC(=O)C(C)NC)C3)c2)CCC2CCC(C(=O)NC(c3ccccc3)c3ccccc3)N2C1=O showed an IC50 [1] of 569 nM, an IC50 [2] of 261 nM and an IC50 [3] of 291 nM. For the same molecule, the IC50 [4] was 503 nM, the IC50 [5] was 207 nM and the IC50 [6] was 139 nM. For the same molecule, the viability, T/C [7] was 150%, the viability, T/C [8] was 127% and the viability, T/C [9] was 120%. It also gave a viability, T/C [10] of 105%, a viability, T/C [11] of 60% and a viability, T/C [12] of 36%. The viability, T/C [13] was 87.4%, the viability, T/C [14] was 84.9% and the viability, T/C [15] was 94.8%. The viability, T/C [16] was 74.9%, the viability, T/C [17] was 45.5% and the viability, T/C [18] was 30.7%. The viability, T/C [19] was 88.7%, the viability, T/C [20] was 88.6% and the viability, T/C [21] was 90.1%. The viability, T/C [22] was 72%, the viability, T/C [23] was 49.2% and the viability, T/C [24] was 31%. For the same molecule, the viability, T/C [25] was 117%, the viability, T/C [26] was 94.3% and the viability, T/C [27] was 102%. The viability, T/C [28] was 83.8%, the viability, T/C [29] was 65.7% and the viability, T/C [30] was 28.7%. For the same molecule, the viability, T/C [31] was 72.6%, the viability, T/C [32] was 76.1% and the viability, T/C [33] was 72.5%. It also gave a viability, T/C [34] of 61%, a viability, T/C [35] of 43.6% and a viability, T/C [36] of 29.9%. The viability, T/C [37] was 78.9%, the viability, T/C [38] was 70.9% and the viability, T/C [39] was 95.4%. For the same molecule, the viability, T/C [40] was 56.5%, the viability, T/C [41] was 39.5% and the viability, T/C [42] was 27.4%.
With `COc1c(OCCCN2CCOCC2)ccc2c3n(c(=NC(=O)c4cnc(N)nc4)nc12)CCN3` + CNC(C)C(=O)NC1CN(S(=O)(=O)c2cccc(S(=O)(=O)N3CCC4CCC(C(=O)NC(c5ccccc5)c5ccccc5)N4C(=O)C(NC(=O)C(C)NC)C3)c2)CCC2CCC(C(=O)NC(c3ccccc3)c3ccccc3)N2C1=O the IC50 [1] was 113 nM, the IC50 [2] was 67.5 nM and the IC50 [3] was 69.3 nM. The IC50 [4] was 74.5 nM, the IC50 [5] was 75.2 nM and the IC50 [6] was 50.9 nM. It also gave a viability, T/C [7] of 81.4%, a viability, T/C [8] of 62.2% and a viability, T/C [9] of 60.6%. The viability, T/C [10] was 55.5%, the viability, T/C [11] was 41.2% and the viability, T/C [12] was 23.8%. The viability, T/C [13] was 83.7%, the viability, T/C [14] was 67.5% and the viability, T/C [15] was 54.4%. It also gave a viability, T/C [16] of 47%, a viability, T/C [17] of 40.9% and a viability, T/C [18] of 26.4%. For the same molecule, the viability, T/C [19] was 80.9%, the viability, T/C [20] was 63.9% and the viability, T/C [21] was 54.4%. The viability, T/C [22] was 49.7%, the viability, T/C [23] was 41.9% and the viability, T/C [24] was 26.6%. It also gave a viability, T/C [25] of 87.2%, a viability, T/C [26] of 61.9% and a viability, T/C [27] of 59.5%. The viability, T/C [28] was 50%, the viability, T/C [29] was 38.4% and the viability, T/C [30] was 27.7%. The viability, T/C [31] was 68.9%, the viability, T/C [32] was 66.6% and the viability, T/C [33] was 52.5%. It also gave a viability, T/C [34] of 48.5%, a viability, T/C [35] of 40.5% and a viability, T/C [36] of 24.9%. The viability, T/C [37] was 77.1%, the viability, T/C [38] was 56.4% and the viability, T/C [39] was 53%. For the same molecule, the viability, T/C [40] was 49.1%, the viability, T/C [41] was 37.2% and the viability, T/C [42] was 24.3%.
`CNC(C)C(=O)NC1CN(S(=O)(=O)c2cccc(S(=O)(=O)N3CCC4CCC(C(=O)NC(c5ccccc5)c5ccccc5)N4C(=O)C(NC(=O)C(C)NC)C3)c2)CCC2CCC(C(=O)NC(c3ccccc3)c3ccccc3)N2C1=O` (stereo unspecified) gave an IC50 (compound alone, run of 11/15/2022) of over 1000 nM and an IC50 (curve of compound) of over 1000 nM.
